# According to patent publication US20260199564A1, “METHOD OF PREVENTING BLOOD COAGULATION AND DRUG-ELUTING IMPLANT FOR PERCUTANEOUS CORONARY INTERVENTION” (priority 2023, published 2026):
# What was measured:
# CYP2D6 = molecular target: T1, CYP2D6 (Homo sapiens, UniProt P10635); experiment: Cytochrome P450 inhibition in human liver microsomes using LC-MS/MS, CYP2D6; type: in vitro ADME
# T1 construct: with pooled human liver microsomes; from tissue; host or cells: pooled human liver microsomes
# T1 sequence (P10635 whole entry): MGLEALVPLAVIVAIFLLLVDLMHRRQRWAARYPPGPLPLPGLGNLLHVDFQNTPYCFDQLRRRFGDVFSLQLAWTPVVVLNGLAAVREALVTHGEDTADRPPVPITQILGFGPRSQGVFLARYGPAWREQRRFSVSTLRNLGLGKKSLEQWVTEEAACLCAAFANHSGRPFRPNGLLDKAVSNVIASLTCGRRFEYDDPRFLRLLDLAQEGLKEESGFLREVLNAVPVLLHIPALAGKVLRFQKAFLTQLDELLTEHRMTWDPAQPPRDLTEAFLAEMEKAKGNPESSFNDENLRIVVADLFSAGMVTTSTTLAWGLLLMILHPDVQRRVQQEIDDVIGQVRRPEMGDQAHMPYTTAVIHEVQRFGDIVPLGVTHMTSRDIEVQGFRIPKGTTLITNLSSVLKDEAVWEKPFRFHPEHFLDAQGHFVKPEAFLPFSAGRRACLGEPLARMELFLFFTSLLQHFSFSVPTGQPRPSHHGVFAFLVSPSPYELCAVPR
# Description: (§1) In IC50 shift experiments, CK (0.2 μL prepared in DMSO) was pre-incubated for 30 min at 37° C., at 8 different concentrations, with pooled human liver microsomes (0.1-1 mg/mL, depending on which enzyme was assessed) in the absence or presence of 1 mM NADPH in 100 μL of potassium phosphate buffer (100 mM, pH 7.4) and MgCl2 (2.5 mM). After the pre-incubation, a substrate mixture containing a probe substrate in 100 μL of potassium phosphate buffer (100 mM, pH 7.4), MgCl2 (2.5 mM), and NADPH (1 mM) was added for measurement of the corresponding P450 activities. Incubations were terminated by addition of 200 μL methanol. Samples were then extracted and centrifuged and the supernatant was subjected to validated LC-MS/MS analysis.
# Human platelets = experiment: Platelet aggregation test (anticoagulant test), collagen-treated platelet-rich plasma; type: cell-based; details: PRP, 5 μg/ml collagen, CK 0-80 μM
# Description: • a. A 20 mM CK stock solution is prepared with DMSO and is diluted with 1×PBS to the different working concentrations (0, 62.5, 125, 250, 500, 1000, and 2000 μM) before experiments.
# The donator should rest and fast for 12 h and not smoke before blood collection. Medication such as antihistamines, antibiotics, Aspirin, and anti-inflammatory drugs are not allowed to take 10-14 days before tests due to the potential of affecting platelet function.
# To ensure the absence of coagulation, the blood sample should be fully mixed with the anticoagulant and stored at 24-27° C. It is recommended to conduct the platelet aggregation test within 30-150 min after blood sample collection.
# Slightly invert the blood collection tubes 3-4 times to resuspend the blood cells. Centrifuge the samples at 170×g for 7 min and transfer the supernatants to the new tubes. The samples should be used within 5-10 min after separation; otherwise, the samples should be stored at 4° C. to avoid agglutination. […]
# To test the effect of CK on the function of platelet aggregation, different concentrations of CK (0, 2.5, 5, 10, 20, 40, and 80 μM) are added to 0.25 ml PRP. […] OD value is measured with a spectrometer at 650 nm, and the value is converted into an aggregate percentage.
# The aggregation percentage of platelet is calculated with the following formula: […]
# HUVECs = experiment: HUVEC cell viability by CCK-8 assay; type: cell-based, human; details: 1 μM, 3 μM, and 10 μM alone for 24 h
# CYP3A4 = molecular target: T2, CYP3A4 (Homo sapiens, UniProt P08684); experiment: Cytochrome P450 inhibition in human liver microsomes using LC-MS/MS, CYP3A4; type: in vitro ADME; details: for IC50 shift (fold difference): ratio of IC50 with −NADPH to IC50 with +NADPH in the 30 min pre-incubation; for IC50: pooled human liver microsomes
# T2 construct: with pooled human liver microsomes; from tissue; host or cells: pooled human liver microsomes
# T2 sequence (P08684 whole entry): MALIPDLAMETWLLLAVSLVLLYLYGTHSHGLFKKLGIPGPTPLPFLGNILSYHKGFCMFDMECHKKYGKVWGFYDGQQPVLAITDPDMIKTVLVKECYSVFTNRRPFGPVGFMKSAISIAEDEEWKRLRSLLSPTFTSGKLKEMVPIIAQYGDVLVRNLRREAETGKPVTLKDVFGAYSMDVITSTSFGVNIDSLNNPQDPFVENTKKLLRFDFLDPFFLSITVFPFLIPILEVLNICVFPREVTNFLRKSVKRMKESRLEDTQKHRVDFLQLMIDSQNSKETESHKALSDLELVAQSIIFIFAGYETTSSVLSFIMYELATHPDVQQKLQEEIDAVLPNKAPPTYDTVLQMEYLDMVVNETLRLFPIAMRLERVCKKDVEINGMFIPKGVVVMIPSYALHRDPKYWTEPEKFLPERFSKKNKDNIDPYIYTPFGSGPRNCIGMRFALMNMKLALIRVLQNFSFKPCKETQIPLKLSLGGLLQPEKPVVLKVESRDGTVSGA
# Description: as §1
# CYP1A2 = molecular target: T3, CYP1A2 (Homo sapiens, UniProt P05177); experiment: Cytochrome P450 inhibition in human liver microsomes using LC-MS/MS, CYP1A2; type: in vitro ADME
# T3 construct: with pooled human liver microsomes; from tissue; host or cells: pooled human liver microsomes
# T3 sequence (P05177 1-516): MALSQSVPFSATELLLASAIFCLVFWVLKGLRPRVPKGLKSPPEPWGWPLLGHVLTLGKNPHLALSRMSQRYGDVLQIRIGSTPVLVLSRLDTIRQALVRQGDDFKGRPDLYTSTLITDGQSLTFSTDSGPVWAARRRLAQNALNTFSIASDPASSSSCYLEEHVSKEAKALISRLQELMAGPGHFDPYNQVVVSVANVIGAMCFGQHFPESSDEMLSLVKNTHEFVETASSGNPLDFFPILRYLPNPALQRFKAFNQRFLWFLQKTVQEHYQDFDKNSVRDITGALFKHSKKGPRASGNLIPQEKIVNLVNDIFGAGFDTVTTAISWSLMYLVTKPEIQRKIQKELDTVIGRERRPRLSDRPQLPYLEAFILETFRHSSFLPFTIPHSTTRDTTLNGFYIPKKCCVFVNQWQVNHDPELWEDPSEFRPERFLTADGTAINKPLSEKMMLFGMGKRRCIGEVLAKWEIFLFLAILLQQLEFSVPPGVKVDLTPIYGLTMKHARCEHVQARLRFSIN
# Description: as §1
# TNF-α = experiment: LPS-induced TNF-α expression in HUVECs; type: cell-based, human; details: 1, 3, 10 μM for 1 h prior to LPS (1 μg/ml) stimulation for 24 h
# Description: (§2) HUVECs were treated for 1 h with ginsenoside CK (1 μM, 3 μM, and 10 μM) prior to LPS (1 μg/ml) stimulation for 24 h (A) IL-6 (B) TNF-αexpression. Values are means±SEM of 3 independent experiments. Statistical significance assessed by one-way ANOVA followed by Scheffe post-hoc test for multiple comparisons (***P<0.01, *P<0.05 vs LPS).
# (§3) Treatment of HUVECs with LPS (1 μg/ml) increased IL-6 and TNF-αexpression. To determine whether LPS-induced IL-6 and TNF-αexpression was affected by ginsenoside CK, HUVECs were treated for 1 h with ginsenoside CK (1 μM, 3 μM, and 10 μM) prior to LPS (1 μg/ml) stimulation for 24 h.
# IL-6 = experiment: LPS-induced IL-6 expression in HUVECs; type: cell-based, human; details: 1, 3, 10 μM for 1 h prior to LPS (1 μg/ml) stimulation for 24 h
# Description: as §2, §3
# [1] = 50 μM, 30 min pre-incubation in the presence or absence of NADPH
smiles,measurement,setting,value
"CC(C)=CCC[C@](C)(O[C@@H]1O[C@H](CO)[C@@H](O)[C@H](O)[C@H]1O)[C@H]1CC[C@]2(C)[C@@H]1[C@H](O)C[C@@H]1[C@@]3(C)CC[C@H](O)C(C)(C)[C@@H]3CC[C@]12C [CK, Ginsenoside compound K]",inhibition at concentration of 50 μM,CYP2D6; [1],did not inhibit
same,IC50,"CYP2D6; pooled human liver microsomes, substrate Dextromethorphan",> 50 µM
same,platelet aggregation level after treating the platelet with CK,Human platelets,decreased
same,cell viability,HUVECs,did not influence cell viability
same,IC50 shift (fold difference),"CYP3A4; CYP3A4(M), midazolam as substrate",0.98 fold
same,IC50 shift (fold difference),"CYP3A4; CYP3A4(T), testosterone as substrate",1.06 fold
same,IC50,CYP3A4; substrate Midazolam,9.76 µM
same,IC50,CYP3A4; substrate Testosterone,13.9 µM
same,inhibition at concentration of 50 μM,CYP1A2; [1],did not inhibit
same,IC50,"CYP1A2; pooled human liver microsomes, substrate Phenacetin",> 50 µM
same,LPS-induced TNF-α expression,TNF-α,significantly decreased
same,LPS-induced IL-6 expression,IL-6,significantly decreased
